Assay results as given in patent US9133122B2, “Amide compounds, compositions and uses thereof” (EVOTEC AG, priority 2008, dated 2015).

Columns and labels:
hP2X3 = biological target: T1, hP2X3 (Homo sapiens, UniProt P56373); test: Calcium uptake assay (Ca influx), P2X antagonist assay, P2X3 homomer; format: cell-based; conditions: inhibition of agonist-induced calcium influx
T1 construct: expressed in transfected cells
T1 sequence (P56373 1-397): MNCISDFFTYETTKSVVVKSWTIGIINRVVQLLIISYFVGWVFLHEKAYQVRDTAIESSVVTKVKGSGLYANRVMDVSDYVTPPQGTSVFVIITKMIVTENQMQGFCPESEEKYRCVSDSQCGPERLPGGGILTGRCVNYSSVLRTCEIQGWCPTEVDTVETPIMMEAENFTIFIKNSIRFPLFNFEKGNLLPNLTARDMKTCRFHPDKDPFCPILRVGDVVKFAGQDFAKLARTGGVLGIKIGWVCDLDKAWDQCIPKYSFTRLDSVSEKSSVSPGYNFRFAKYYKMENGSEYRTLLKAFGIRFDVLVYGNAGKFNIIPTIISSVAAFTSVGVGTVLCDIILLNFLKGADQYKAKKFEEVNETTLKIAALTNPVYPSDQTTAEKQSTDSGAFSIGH
From the text: (§1) Human P2X3 (Accession no. NM_002559), P2X2 (Accession no. NM_170682) and Rat P2X3 (Accession no. NM_031075) and P2X2 (Accession no. NM_053656) are cloned into a mammalian expression vector (e.g., pcDNAS/TO or pcDNA3 Invitrogen). The human P2X2/3 chimera clone is created as described by Neelands et al, and then cloned into an expression vector as above. Receptors are expressed in cells (e.g., HEK293 or 1321N1 (obtained from the ECACC)) via transient transfection using standard lipid mediated transfection, or by creation of stable transfectants for each receptor. For expression of the P2X2/3 heteromeric receptor, the P2X3 expression vector is stably transfected into a cell line already stably expressing P2X2. P2X2/3 heteromer function is isolated using pharmacological methods. Cell lines are maintained in DMEM+5% Glutamax, the appropriate level of selective antibiotic, and 10% heat inactivated FBS.
(§2) Functional activity of compounds at the P2X receptor is determined by measuring their ability to inhibit agonist-induced calcium influx. Compounds are tested for antagonist activity against the P2X2/3 chimera, the P2X3 homomer, or the P2X2/3 heteromer. At the start of each screening day, the agonist EC50 is determined. Compound % inhibition or IC50s are subsequently determined using a predetermined agonist concentration (EC50-90 depending on cell line) as a stimulus. The agonists used are αβMeATP, ATP, or other ATP analogs. Compounds may be tested at concentrations ranging from 1 pM to 10 μM.
(§3) To test for antagonist activity, cells expressing the appropriate receptor are seeded onto 96 or 384 well plates 18-24 hours prior to assay. On the day of the assay, cells are loaded with calcium-sensitive fluorescent dye (e.g., Fluo-4 no wash reagent-Invitrogen cat#F36206, or the BD™ PBX Calcium Assay Kit-BD cat #640175) in Hank's Buffered Salt Solution (HBSS) with up to 10 mM supplemental CaCl2. Plates are incubated at 37° C. and then equilibrated at room temperature. Antagonism of agonist-induced calcium influx is measured using a fluorescent imaging plate reader (e.g. FLIPR^TETRA, Molecular Devices, Sunnyvale, Calif.). The assay comprises two stages: a pre-treatment phase followed by a treatment phase. Compounds may be tested as follows: For the pre-treatment phase, 50 μL of 3× concentration of test compound in HBSS is added to cells containing 100 μL of dye loading media to achieve a final concentration of 1× test compound. For the treatment phase, at a set interval after pre-treatment (1-30 minutes), 50 μL of 1× test compound plus 4× agonist solution is added, resulting in a final concentration of 1× compound and 1× agonist. Fluorescence is measured at 0.1-3 second intervals—with an excitation wavelength of 494 nm and an emission wavelength of 515 nm. Responses are measured as (peak fluorescence after agonist addition) minus (baseline fluorescence prior to treatment). Percent inhibition is calculated as follows:
(§4) [formula] IC50 values are determined by analyzing dose response data in a 4 parameter logistic fit using GraphPad Prizm.
(§5) The following compounds have been or can be prepared according to the synthetic methods described herein. A calcium uptake assay was performed as described above and the activity of each compound is expressed as follows: […]

hP2X2/3H = biological target: T2, hP2X2/3H (Homo sapiens, UniProt P56373+Q9UBL9); test: Calcium uptake assay (Ca influx), P2X antagonist assay, P2X2/3 heteromer; format: cell-based; conditions: inhibition of agonist-induced calcium influx
T2 construct: expressed in transfected cells
T2 sequence (P56373 1-397): T1 sequence (P56373 1-397)
T2 sequence (Q9UBL9 1-471): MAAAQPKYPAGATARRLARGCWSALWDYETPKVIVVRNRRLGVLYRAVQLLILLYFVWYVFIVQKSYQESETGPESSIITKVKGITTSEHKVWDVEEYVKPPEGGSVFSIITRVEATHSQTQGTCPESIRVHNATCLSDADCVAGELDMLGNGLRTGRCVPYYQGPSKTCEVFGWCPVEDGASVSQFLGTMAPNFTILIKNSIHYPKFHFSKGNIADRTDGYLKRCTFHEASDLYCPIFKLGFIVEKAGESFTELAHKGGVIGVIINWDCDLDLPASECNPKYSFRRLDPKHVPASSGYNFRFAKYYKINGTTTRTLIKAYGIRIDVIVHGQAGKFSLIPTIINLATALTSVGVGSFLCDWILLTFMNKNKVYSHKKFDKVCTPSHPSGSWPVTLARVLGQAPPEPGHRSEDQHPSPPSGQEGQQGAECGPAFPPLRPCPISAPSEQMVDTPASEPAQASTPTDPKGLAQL
From the text: as §1, §2, §3, §4, §5

SMILES | IC50 (hP2X3) [µM] | IC50 (hP2X2/3H) [µM]
Cc1ccc(-c2cc(C(=O)NCc3ccc(C)nc3)cc(-c3cnccc3C#N)c2)nc1 [Compound 46, 3-(4-Cyano-pyridin-3-yl)-5-(5-methyl-pyridin-2-yl)-N-(6-methyl-pyridin-3-ylmethyl)-benzamide] | 0.0073 | 0.0088
Cc1ccc(-c2cc(C(=O)NCc3ccc(C)nc3)cc(-c3ccccc3)c2)nc1 [Compound 21, 5-(5-Methyl-pyridin-2-yl)-biphenyl-3-carboxylic acid (6-methyl-pyridin-3-ylmethyl)-amide] | 0.192 | 0.914
Cc1ccc(-c2cc(C(=O)N[C@H](C)c3cnc(C)nc3)cc(-c3cnccc3C#N)c2)nc1 [Compound 55, 3-(4-Cyano-pyridin-3-yl)-5-(5-methyl-pyridin-2-yl)-N-[(R)-1-(2-methyl-pyrimidin-5-yl)-ethyl]-benzamide] | 0.0127 | 0.0275
Cc1ccc(-c2cc(C(=O)NCc3ccc(C)nc3)cc(-c3ccccc3C#N)c2)cc1 [Compound 27, 2″-Cyano-4-methyl-[1,1′;3′,1″]terphenyl-5′-carboxylic acid (6-methyl-pyridin-3-ylmethyl)-amide] | 0.195 | 0.142
Cc1ccc(-c2cc(C(=O)N[C@@H](C)CO)cc(-c3cnccc3C#N)c2)c(C#N)c1 [Compound 86, 2′-Cyano-5-(4-cyano-pyridin-3-yl)-4′-methyl-biphenyl-3-carboxylic acid ((S)-2-hydroxy-1-methyl-ethyl)-amide] | 0.0022 | 0.0281
Cc1ccc(-c2cc(C(=O)NCc3ccc(C)nc3)cc(N3CCCC3=O)c2)cc1 [Compound 49, 4′-Methyl-5-(2-oxo-pyrrolidin-1-yl)-biphenyl-3-carboxylic acid (6-methyl-pyridin-3-ylmethyl)-amide] | 0.0341 | 0.205
Cc1ccc(-c2cc(C(=O)NCc3ccc(C)nc3)cc(-c3cccnc3)c2)nc1 [Compound 20, 3-(5-Methyl-pyridin-2-yl)-N-(6-methyl-pyridin-3-ylmethyl)-5-pyridin-3-yl-benzamide] | 0.0385 | 0.0705
Cc1ccc(-c2cc(C(=O)N[C@H](C)c3ccc(C)nc3)cc(N3CCCC3=O)c2)cc1 [Compound 51, 4′-Methyl-5-(2-oxo-pyrrolidin-1-yl)-biphenyl-3-carboxylic acid [(R)-1-(6-methyl-pyridin-3-yl)-ethyl]-amide] | 0.0238 | 0.037
Cc1ccc(-c2cc(C(=O)NCc3ccc(C)nc3)cc(-c3ccc(F)cc3F)c2)cc1 [Compound 5, 2″,4″-Difluoro-4-methyl-[1,1′;3′,1″]terphenyl-5′-carboxylic acid (6-methyl-pyridin-3-ylmethyl)-amide] | 1.96 | 8.31
Cc1ccc(-c2cc(C(=O)N[C@@H](C)CO)cc(-c3cc(C)ccc3C#N)c2)nc1 [Compound 71, 2′-Cyano-5′-methyl-5-(5-methyl-pyridin-2-yl)-biphenyl-3-carboxylic acid ((S)-2-hydroxy-1-methyl-ethyl)-amide] | 0.0436 | 0.24
Cc1ncc([C@@H](C)NC(=O)c2cc(-c3ccccn3)cc(-c3ccccc3CO)c2)cn1 [Compound 44, 2′-Hydroxymethyl-5-pyridin-2-yl-biphenyl-3-carboxylic acid [(R)-1-(2-methyl-pyrimidin-5-yl)-ethyl]-amide] | 0.0916 | 0.293
Cc1ccc(-c2cc(C(=O)N[C@@H](C)CO)cc(N3CCCC3=O)c2)cc1 [Compound 60, 4′-Methyl-5-(2-oxo-pyrrolidin-1-yl)-biphenyl-3-carboxylic acid ((S)-2-hydroxy-1-methyl-ethyl)-amide] | 0.207 | 8.68
Cc1ccc(-c2cc(C(=O)N[C@H](C)c3cnc(C)nc3)cc(-c3cccc(F)c3C#N)c2)nc1 [Compound 52, 2′-Cyano-3′-fluoro-5-(5-methyl-pyridin-2-yl)-biphenyl-3-carboxylic acid [(R)-1-(2-methyl-pyrimidin-5-yl)-ethyl]-amide] | 0.0262 | 0.0375
